In the supplement of paper PMC8617591:

Experiments:
[1] = tested on: Mycobacterium tuberculosis Erdman (autoluminescent); assay: GRinf, maximum normalised growth rate inhibition (three-drug combination) (unitless (-1 to 1)); higher = less effect (negative = killing)
Experimental: (§1)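 DiaMOND equipotent three-drug combination dose responses (10 doses, 1.5- or 2-fold spacing, centred on IC90) against autoluminescent M. tuberculosis Erdman in 8 in vitro models. Read-out is OD600, or luminescence for the intracellular and dormancy models, normalised to untreated wells. Hill-fit Einf, AUC25 and GRinf are potency metrics; FIC50 and FIC90 are total Loewe fractional inhibitory concentrations as log2 (negative = synergy).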

[2] = tested on: Mycobacterium tuberculosis Erdman (autoluminescent); assay: AUC25, normalised area under dose response up to IC25 (three-drug combination) (fraction (0-1)); higher = more potent at low dose
Experimental: as §1

[3] = tested on: Mycobacterium tuberculosis Erdman (autoluminescent); assay: Einf, fitted maximum growth inhibition of three-drug combination (fraction); higher = stronger maximal inhibition
Experimental: as §1

[4] = tested on: Mycobacterium tuberculosis Erdman (autoluminescent); assay: total FIC50 (Loewe) at 50% inhibition, three-drug combination (log2); higher = more antagonistic
Experimental: as §1

[5] = tested on: Mycobacterium tuberculosis Erdman (autoluminescent); assay: total FIC90 (Loewe) at 90% inhibition, three-drug combination (log2); higher = more antagonistic
Experimental: as §1

CC(C)/N=c1\cc2n(-c3ccc(Cl)cc3)c3ccccc3nc-2cc1Nc1ccc(Cl)cc1 [clofazimine] + CO[C@H]1/C=C/O[C@@]2(C)Oc3c(C)c(O)c4c(O)c(c(/C=N/N5CCN(C6CCCC6)CC5)c(O)c4c3C2=O)NC(=O)/C(C)=C\C=C\[C@H](C)[C@H](O)[C@@H](C)[C@@H](O)[C@@H](C)[C@H](OC(C)=O)[C@@H]1C [rifapentine] + CO[C@H]1/C=C/O[C@@]2(C)Oc3c(C)c(O)c4c(O)c(c(/C=N/N5CCN(C)CC5)c(O)c4c3C2=O)NC(=O)/C(C)=C\C=C\[C@H](C)[C@H](O)[C@@H](C)[C@@H](O)[C@@H](C)[C@H](OC(C)=O)[C@@H]1C [rifampicin]
Settings	AUC25, [2]	Einf, [3]	GRinf, [1]	total FIC50, [4]	total FIC90, [5]
in vitro model: acidic pH 5.7, time point: constant (~7 days, model-specific)	0.0846	0.855	-0.0603	0.102	–
in vitro model: acidic pH 5.7, time point: terminal (~4-5 doublings, model-specific)	0.076	0.975	-0.1	0.133	-0.159
in vitro model: intracellular J774, time point: constant = terminal	–	0.956	-0.293	–	0.0463

Settings	AUC25, [2]	Einf, [3]	GRinf, [1]	total FIC50, [4]	total FIC90, [5]
in vitro model: butyrate, time point: constant (~7 days, model-specific)	0.115	0.935	-0.0887	0.282	0.128
in vitro model: butyrate, time point: terminal (~4-5 doublings, model-specific)	0.0924	0.967	-0.0699	0.19	0.285
in vitro model: cholesterol 0.05 mM, time point: constant (~7 days, model-specific)	0.13	0.619	-0.094	0.554	–
in vitro model: cholesterol 0.05 mM, time point: terminal (~4-5 doublings, model-specific)	0.098	0.865	0.0942	1.05	0.206
in vitro model: cholesterol-high 0.2 mM, time point: constant (~7 days, model-specific)	0.105	0.887	-0.333	0.692	–
in vitro model: cholesterol-high 0.2 mM, time point: terminal (~4-5 doublings, model-specific)	0.0914	0.999	-0.983	0.952	0.73
in vitro model: dormancy (butyrate + nitrate, low O2), time point: constant (~7 days, model-specific)	0.0771	0.965	0.0628	0.158	-0.937
in vitro model: dormancy (butyrate + nitrate, low O2), time point: terminal (~4-5 doublings, model-specific)	0.067	0.994	-0.464	-0.183	0.154
in vitro model: standard 7H9 glycerol, time point: constant = terminal	0.0923	0.907	0.0923	0.00896	1.54
in vitro model: valerate, time point: constant (~7 days, model-specific)	0.0792	0.861	0.00522	0.944	–
in vitro model: valerate, time point: terminal (~4-5 doublings, model-specific)	0.0548	0.925	0.043	0.559	0.577

CC(C)/N=c1\cc2n(-c3ccc(Cl)cc3)c3ccccc3nc-2cc1Nc1ccc(Cl)cc1 [clofazimine] + COc1c(N2C[C@@H]3CCCN[C@@H]3C2)c(F)cc2c(=O)c(C(=O)O)cn(C3CC3)c12 [moxifloxacin] + CO[C@H]1/C=C/O[C@@]2(C)Oc3c(C)c(O)c4c(O)c(c(/C=N/N5CCN(C6CCCC6)CC5)c(O)c4c3C2=O)NC(=O)/C(C)=C\C=C\[C@H](C)[C@H](O)[C@@H](C)[C@@H](O)[C@@H](C)[C@H](OC(C)=O)[C@@H]1C [rifapentine]
Settings	AUC25, [2]	Einf, [3]	GRinf, [1]	total FIC50, [4]	total FIC90, [5]
in vitro model: acidic pH 5.7, time point: constant (~7 days, model-specific)	0.0597	0.791	0.0664	0.757	–
in vitro model: acidic pH 5.7, time point: terminal (~4-5 doublings, model-specific)	0.0785	0.994	-0.157	0.662	0.776
in vitro model: intracellular J774, time point: constant = terminal	–	0.896	-0.177	–	0.705

Settings	AUC25, [2]	Einf, [3]	GRinf, [1]	total FIC50, [4]	total FIC90, [5]
in vitro model: butyrate, time point: constant (~7 days, model-specific)	0.109	0.951	-0.179	0.683	0.815
in vitro model: butyrate, time point: terminal (~4-5 doublings, model-specific)	0.0865	0.976	-0.126	0.677	0.878
in vitro model: cholesterol 0.05 mM, time point: constant (~7 days, model-specific)	0.117	0.651	-0.0835	0.506	–
in vitro model: cholesterol 0.05 mM, time point: terminal (~4-5 doublings, model-specific)	0.106	0.826	0.0322	1.24	0.476
in vitro model: cholesterol-high 0.2 mM, time point: constant (~7 days, model-specific)	0.122	0.933	-0.651	0.36	0.939
in vitro model: cholesterol-high 0.2 mM, time point: terminal (~4-5 doublings, model-specific)	0.0999	1	-0.936	0.593	0.687
in vitro model: dormancy (butyrate + nitrate, low O2), time point: constant (~7 days, model-specific)	0.0884	0.916	0.189	0.695	0.16
in vitro model: dormancy (butyrate + nitrate, low O2), time point: terminal (~4-5 doublings, model-specific)	0.0815	0.985	-0.35	0.807	1.55
in vitro model: standard 7H9 glycerol, time point: constant = terminal	0.11	0.961	-0.153	0.103	0.69
in vitro model: valerate, time point: constant (~7 days, model-specific)	0.121	0.922	-0.0961	0.866	–
in vitro model: valerate, time point: terminal (~4-5 doublings, model-specific)	0.0636	0.937	0.0037	0.401	0.131

CC(C)/N=c1\cc2n(-c3ccc(Cl)cc3)c3ccccc3nc-2cc1Nc1ccc(Cl)cc1 [clofazimine] + COc1c(N2C[C@@H]3CCCN[C@@H]3C2)c(F)cc2c(=O)c(C(=O)O)cn(C3CC3)c12 [moxifloxacin] + CO[C@H]1/C=C/O[C@@]2(C)Oc3c(C)c(O)c4c(O)c(c(/C=N/N5CCN(C)CC5)c(O)c4c3C2=O)NC(=O)/C(C)=C\C=C\[C@H](C)[C@H](O)[C@@H](C)[C@@H](O)[C@@H](C)[C@H](OC(C)=O)[C@@H]1C [rifampicin]
Settings	AUC25, [2]	Einf, [3]	GRinf, [1]	total FIC50, [4]	total FIC90, [5]
in vitro model: acidic pH 5.7, time point: constant (~7 days, model-specific)	0.0543	0.794	0.0586	0.584	–
in vitro model: acidic pH 5.7, time point: terminal (~4-5 doublings, model-specific)	0.0718	0.984	-0.141	0.552	0.413
in vitro model: intracellular J774, time point: constant = terminal	–	0.971	-0.31	–	0.881

Settings	AUC25, [2]	Einf, [3]	GRinf, [1]	total FIC50, [4]	total FIC90, [5]
in vitro model: butyrate, time point: constant (~7 days, model-specific)	0.118	0.961	-0.195	0.632	0.476
in vitro model: butyrate, time point: terminal (~4-5 doublings, model-specific)	0.0964	0.979	-0.129	0.441	0.673
in vitro model: cholesterol 0.05 mM, time point: constant (~7 days, model-specific)	0.111	0.622	0.0422	1.52	–
in vitro model: cholesterol 0.05 mM, time point: terminal (~4-5 doublings, model-specific)	0.0951	0.89	-0.0588	1.22	-0.407
in vitro model: cholesterol-high 0.2 mM, time point: constant (~7 days, model-specific)	0.119	0.887	-0.695	1.08	1.19
in vitro model: cholesterol-high 0.2 mM, time point: terminal (~4-5 doublings, model-specific)	0.0965	1	-1	1.33	1.21
in vitro model: dormancy (butyrate + nitrate, low O2), time point: constant (~7 days, model-specific)	0.0851	0.924	0.135	0.282	-0.619
in vitro model: dormancy (butyrate + nitrate, low O2), time point: terminal (~4-5 doublings, model-specific)	0.108	0.991	-0.361	-0.142	1.27
in vitro model: standard 7H9 glycerol, time point: constant = terminal	0.128	0.975	-0.0863	-0.17	–
in vitro model: valerate, time point: constant (~7 days, model-specific)	0.104	0.907	-0.0605	1.12	–
in vitro model: valerate, time point: terminal (~4-5 doublings, model-specific)	0.075	0.948	0.0195	0.91	1.97
